How the values were obtained:
Assay type in all cases: in vivo, CF1 male mice
serum cholesterol [1] = assay: Testing of Normal Mice: serum cholesterol (modified Liebermann-Burchard), Example 7; settings: Mus musculus, 20 mg/kg/day ip
Experimental: (§1) Suspensions of Compounds Nos. 1-9 were prepared wherein the compounds were suspended in an aqueous 1% carboxymethylcelluose solution, homogenized and administered to CF1 male mice, each weighing approximately 25 grams, intraperitoneally on a daily basis for 16 days. The dosage was, with the exception of one compound, 20 milligrams of the active compound per kilogram of mouse weight per day. On days 9 and 16 blood was obtained by tail vein bleeding. The blood serum was separated by centrifugation for three minutes. Serum cholesterol levels were determined by a modification of the Liebermann-Burchard reaction. Serum was also collected on day 16 and the triglycerides content was determined by a commercial kit, BioDynamics/bnc Single Vile Colorimetric Method 348201. Each compound was tested on a group of six mice.
(§2) In addition to the above-described treated mice, untreated control groups of six mice were similarly tested on days 9 and 14 or 16 to determine their serum cholesterol and triglycerides blood levels. Table 5 reports the percent control, based on the serum cholesterol and serum triglyceride levels of the treated mice compared to the untreated controls. Table 5 also includes the standard deviation indicating the level of confidence of these numbers.
(§3) Example 7 was repeated substituting clofibrate, a compound used in the prior art to lower serum cholesterol and serum triglyceride levels. The clofibrate was administered as a suspension in an aqueous 1% solution of carboxymethylcellulose. However, unlike the compounds of the present invention which were administered at a dosage of 20 mg/kg day, ip, this compound was administered at the elevated concentration of 150 mg/kg day, ip.

serum triglycerides [2] = assay: Testing of Normal Mice: serum triglycerides (BioDynamics kit), Example 7; settings: Mus musculus, 384 h; 20 mg/kg/day ip, day 16, ± SD
Experimental: as §1, §2, §3

serum cholesterol [3] = assay: Hypolipidemic Activity of Compounds 1 and 10-33, Example 13: serum cholesterol; settings: Mus musculus, 20 mg/kg/day ip
Experimental: (§4) Compounds 1 and 10-33, identified below in Table 11, were suspended by homogenation in a 1% aqueous solution of carboxymethylcellulose (CMC) such that a 0.2 ml dosage supplied a concentration of 20 mg/kg of the active compounds. The suspending agent, the 1% aqueous solution of CMC, was utilized as a control, applied in the same quantity, 0.2 ml. CF1 male mice, maintained in groups of six, were fed Wayne Blox [trademark] laboratory animal show ad libitum with water. The mice, which each weighed approximately 25 g, were administered the drugs interperitoneally at approximately the same time. On days 9 and 16 approximately […] of blood was taken from each of the animals by tail bleeding. After centrifugation to obtain serum, 25 microliter samples were assayed for total cholesterol utilizing the method of Ness et al. Serum triglyicerides were assayed, using a commercially available BioDynamics/bmc triglyiceride kit, on blood collected on the 16th day. By comparison to standards the milligram percent of cholesterol and milligram per deciliter concentration of triglicerides were calculated. Treated values were expressed as a percent of the level of the control animals plus or minus the standard deviation. The "T" values were obtained using the Student's "t" test.

serum triglycerides [4] = assay: Hypolipidemic Activity of Compounds 1 and 10-33, Example 13: serum triglycerides; settings: Mus musculus, 384 h; 20 mg/kg/day ip, day 16, ± SD; read-out: Serum Triglyceride as a function of control, 16 Day
Experimental: as §4

How did the response vs control in vivo at 20 mg/kg (serum cholesterol [1]; 216 h, day 9, ± SD, read-out: Serum Cholesterol Control, % Day 9) turn out when `O=c1[nH]c(=O)c2ccccc2c2ccccc12` [Compound 1, Diphenimide] was run?
The response vs control in vivo at 20 mg/kg was 81 ± 7%.

What about the response vs control in vivo at 20 mg/kg (serum cholesterol [1]; 384 h, day 16, ± SD, read-out: Serum Cholesterol Control, % Day 16) of the same compound?
The response vs control in vivo at 20 mg/kg was 82 ± 4%.

What about the response vs control in vivo at 20 mg/kg (serum triglycerides [2]) of the same compound?
Its response vs control in vivo at 20 mg/kg is 81 ± 7%.

And the response vs control in vivo at 20 mg/kg (serum cholesterol [3]; 216 h, day 9, ± SD, read-out: Serum Cholesterol as a function of control, 9 Day)?
Its response vs control in vivo at 20 mg/kg is 81 ± 7%.

And the response vs control in vivo at 20 mg/kg (serum cholesterol [3]; 384 h, day 16, ± SD, read-out: Serum Cholesterol as a function of control, 16 Day)?
The response vs control in vivo at 20 mg/kg was 82 ± 4%.

What about the response vs control in vivo at 20 mg/kg (serum triglycerides [4]) of the same compound?
The response vs control in vivo at 20 mg/kg was 81 ± 7%.
